Assay results as given in publication PMC8792425 (Redox Biology, 2022).

Molecular target: T1, citrate synthase (CS) (Homo sapiens, UniProt O75390)
T1 sequence (O75390 28-466): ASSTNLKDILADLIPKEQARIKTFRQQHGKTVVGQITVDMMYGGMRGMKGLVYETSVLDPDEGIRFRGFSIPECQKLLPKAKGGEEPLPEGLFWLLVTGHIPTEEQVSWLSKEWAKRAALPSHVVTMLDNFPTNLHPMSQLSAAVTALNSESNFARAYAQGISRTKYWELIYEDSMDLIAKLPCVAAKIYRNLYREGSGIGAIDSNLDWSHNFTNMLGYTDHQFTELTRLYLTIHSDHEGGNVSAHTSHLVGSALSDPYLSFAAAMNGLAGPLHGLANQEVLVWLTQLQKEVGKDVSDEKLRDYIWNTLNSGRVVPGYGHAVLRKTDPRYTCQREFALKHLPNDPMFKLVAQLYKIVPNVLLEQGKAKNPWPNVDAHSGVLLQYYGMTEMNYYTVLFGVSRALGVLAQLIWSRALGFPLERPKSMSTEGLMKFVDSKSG
Experiment: DTNB-CoA absorbance at […] nm
Assay type: biochemical

O=C(O)CC(=O)C(=O)O [oxaloacetate] was tested, and the “DTNB-CoA absorbance at 412 nm” value (with acetyl CoA and DTNB) was “oxaloacetate, acetyl CoA, and DTNB were incubated with protein lysates”.

CC(=O)SCCNC(=O)CCNC(=O)[C@H](O)C(C)(C)COP(=O)(O)OP(=O)(O)OC[C@H]1O[C@@H](n2cnc3c(N)ncnc32)[C@H](O)[C@@H]1OP(=O)(O)O [acetyl CoA] was tested, and the “DTNB-CoA absorbance at 412 nm” value (with oxaloacetate and DTNB) was “oxaloacetate, acetyl CoA, and DTNB were incubated with protein lysates”.
